Legend:
Aβ = Aβ levels in brain homogenates (cortex) of APP695/swe mice; assay type: in vivo, mouse
Experimental: A group of non-transgenic and APP695/swe mice were fed a diet containing 50 mg/kg/day of compound 9. Treatment started at weaning (˜6 weeks of age) and lasted 4 months. At the end of treatment, the animals were sacrificed and the electrophysiological properties of hippocampal brain slices (as induced by theta burst stimulation to the Schaffer collaterals) were studied.
Note that at this age, the animals have not yet developed plaques. As expected from our previous results in cellular models (Ko and Puglielli, 2009), no effect on the Aβ42/Aβtotal ratio was observed (data not shown). In fact compound 9 affects BACE1 levels and, as such, impacts on the generation of all Aβ species.

ATase2 = target: T1, ATase2 (Homo sapiens, UniProt Q9UHE5); assay: AcetylCoA:lysine acetyltransferase assay (fluorescent, affinity purified ATase2-myc); assay type: biochemical
T1 construct: myc (C); made in house
T1 sequence (Q9UHE5 1-227): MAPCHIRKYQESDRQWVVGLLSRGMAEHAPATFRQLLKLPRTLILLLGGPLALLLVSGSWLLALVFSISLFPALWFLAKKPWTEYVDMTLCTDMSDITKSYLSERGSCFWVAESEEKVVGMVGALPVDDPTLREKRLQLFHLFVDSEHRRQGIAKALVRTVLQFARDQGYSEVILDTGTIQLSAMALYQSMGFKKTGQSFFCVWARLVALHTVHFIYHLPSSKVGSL
Experimental: (§1) The acetyl:CoA lysine acetyltransferase activity of ATase1 and ATase2 was assayed as described before (Ko and Puglielli, 2009). Briefly, we adapted a commercially available fluorescent kit (cat. no. 10006515, Cayman Chemicals) as follows: as source of the enzymatic activity, we used affinity purified ATase1-myc and ATase2-myc at the final concentration of 300 ng/μl; as donor of the acetyl group, we used acetyl-CoA at the final concentration of 12.5 μM. […] The acetyltransferase assay was performed as recommended by the manufacturer.
(§2) For kinetic analysis of ATase1 and ATase2 inhibition, the assays were performed in the presence of the indicated concentrations of compound 9, 19 and 9.I. The concentration of acetyl-CoA was varied from […]. Values were plotted as a Lineweaver-Burk plot using Graphpad Prism software.
(§3) We previously described a fluorescent assay that is able to assess the acetylCoA:lysine acetyltransferase activity of ATase1 and ATase2 in vitro (Ko and Puglielli, 2009). The assay employs affinity purified ATase1 or ATase2 (as enzymes), acetyl-CoA (as donor of the acetyl group) and a recombinant peptide corresponding to the N-terminal tail of the histone protein H3 (as acceptor of the acetyl group). The H3 peptide was preferred to affinity purified BACE1 because it is acetylated in a conformation independent manner ((Ko and Puglielli, 2009) and data not shown) and, therefore, more suitable for large screening approaches. To identify possible ATase1 and ATase2 inhibitors we used the assay to screen a single library of 14,400 small molecules/compounds. The screen identified 186 small molecules/compounds able to inhibit ATase1, ATase2 or both in vitro. […] Each compound was then screened for cytotoxic properties by using multi-plex cytotoxicity assays on a variety of cell lines, including human neuroblastoma and human neuroglioma. […] The above 30 compounds were individually screened on human neuroglioma (H4) cells for their ability to reduce the levels of BACE1 and the generation of Aβ. Two compounds, 9 and 19, produced significant changes and were object of further study.

[1] = test system: histone acetyltransferase p300/CBP; assay: In vitro activity of histone acetyltransferase p300/CBP; assay type: biochemical; conditions: data not shown
ATase1 = target: T2, ATase1 (Homo sapiens, UniProt Q9UHF3); assay: AcetylCoA:lysine acetyltransferase assay (fluorescent, affinity purified ATase1-myc); assay type: biochemical
T2 construct: myc (C); made in house
T2 sequence (Q9UHF3 1-227): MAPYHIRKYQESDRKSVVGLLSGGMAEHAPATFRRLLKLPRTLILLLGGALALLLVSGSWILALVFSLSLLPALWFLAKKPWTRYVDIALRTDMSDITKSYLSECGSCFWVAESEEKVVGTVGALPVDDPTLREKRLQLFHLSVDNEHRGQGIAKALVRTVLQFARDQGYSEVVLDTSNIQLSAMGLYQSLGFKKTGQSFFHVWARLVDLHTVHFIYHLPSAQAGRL
Experimental: as §1, §2, §3

ATase1 and ATase2 = assay: Western blot of ATase1 and ATase2 levels in CHO cells over-expressing transgenic ATase1 or ATase2; assay type: cell-based, hamster; conditions: 10 μM, 48 hours
Experimental: FIG. 4. Compound 9 causes degradation of the ATases. (A) H4 cells were treated with the indicated compounds (10 μM) for 48 hours prior to Western blot assessment of BACE1 and ATase1/ATase2 levels in total cell lysates. (B, D and E) Quantification of changes are expressed as percent of control (no treatment) and are the average (n=3)±S.D.*, P<0.05; **, P<0.005; ^#, P<0.0005. (C) ELISA determination of secreted Aβ in the conditioned media of the experiment described in (A). Results are expressed as percent of control (no treatment) and are the average (n=3)±S.D.*, P<0.05; **, P<0.005. (F) CHO cells over-expressing either ATase1 or ATase2 were treated with compound 9 (10 μM) for 48 hours prior to Western blot assessment of ATase1 and ATase2 levels in total cell lysates.
Western blotting was performed on a 4-12% Bis-Tris SDS-PAGE system (NuPAGE; Invitrogen, Carlsbad, Calif., USA) as described previously (Costantini et al., 2006; Jonas et al., 2008; Jonas et al., 2010; Ko and Puglielli, 2007; Ko and Puglielli, 2009; Pehar et al., 2010). […]

[2] = Lineweaver-Burk plot, acetyl-CoA varied

IC50 (ATase2): ~790 nM
kinetics of inhibition for acetyl-CoA, ATase2 (ATase2; [2]): non-competitive inhibition
inhibition of in vitro activity of p300/CBP [1]: neither compound inhibited
IC50 (ATase1): ~3900 nM
kinetics of inhibition for acetyl-CoA, ATase1 (ATase1; [2]): competitive inhibition
Compound: O=c1c(Cl)c2oc3ccccc3nc-2c2ccccc12 [Compound 9]
reduction in soluble Aβ in the brain homogenates (Aβ; 50 mg/kg/day in diet, 4 months): ~50%
Aβ (Aβ; brain homogenates (cortex), 50 mg/kg/day in diet, 4 months): 178 ± 14 ng/gr
Aβ42/Aβtotal ratio (Aβ; data not shown): no effect
levels of transgenic ATase1 and ATase2 (ATase1 and ATase2): significantly decreases

— patent publication US9522124B2, “Methods for treating Alzheimer's disease” (Wisconsin Alumni Research Foundation, priority 2011, dated 2016)
